Reference: ChEMBL document CHEMBL4312012, “Development of a novel hybrid antimicrobial peptide for targeted killing of Pseudomonas aeruginosa” (Eur J Med Chem, 2020)
Calls of active or inactive are those of the source. The calls are words filed in the database; no cut-off is given here. Peptide text beside a SMILES is read from it.

Key:
[1] = test system: Candida albicans; assay: Binding affinity to cell surface of Candida albicans ATCC 10231 at 10 uM incubated for 1 hr by ELISA; format: organism-based
[2] = molecular target: T1, Outer membrane porin F (Pseudomonas aeruginosa (strain ATCC 15692 / DSM 22644 / CIP 104116 / JCM14847 / LMG 12228 / 1C / PRS 101 / PAO1)) (UniProt P13794); assay: Binding affinity to OprF in Pseudomonas aeruginosa H103 at 10 uM incubated for 1 hr by ELISA
T1 sequence (whole entry): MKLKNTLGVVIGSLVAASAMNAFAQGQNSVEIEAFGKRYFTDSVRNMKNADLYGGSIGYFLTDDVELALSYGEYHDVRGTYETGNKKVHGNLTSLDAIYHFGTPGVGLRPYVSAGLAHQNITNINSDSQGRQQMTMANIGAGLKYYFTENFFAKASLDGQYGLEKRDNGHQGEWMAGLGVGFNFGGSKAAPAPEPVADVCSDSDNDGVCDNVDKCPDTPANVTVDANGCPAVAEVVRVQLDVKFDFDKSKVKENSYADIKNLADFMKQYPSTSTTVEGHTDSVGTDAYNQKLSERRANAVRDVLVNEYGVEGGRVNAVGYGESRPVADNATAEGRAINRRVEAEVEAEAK

[3] = test system: Escherichia coli; assay: Binding affinity to cell surface of Escherichia coli KCTC 2223 at 10 uM incubated for 1 hr by ELISA; format: organism-based
[4] = test system: Pseudomonas aeruginosa; assay: Binding affinity to cell surface of Pseudomonas aeruginosa H103 at 10 uM incubated for 1 hr by ELISA; format: organism-based
[5] = test system: Salmonella typhimurium; assay: Binding affinity to cell surface of Salmonella typhimurium KCTC 2370 at 10 uM incubated for 1 hr by ELISA; format: organism-based; details: Salmonella enterica subsp. enterica serovar Typhimurium
[6] = test system: Staphylococcus aureus; assay: Binding affinity to cell surface of Staphylococcus aureus ATCC 15752 at 10 uM incubated for 1 hr by ELISA; format: organism-based
[7] = test system: Outer membrane porin F (Pseudomonas aeruginosa (strain ATCC 15692 / DSM 22644 / CIP 104116 / JCM14847 / LMG 12228 / 1C / PRS 101 / PAO1)), P13794 [UNDEFINED MUTATION]; assay: Binding affinity to OprF mutant in Pseudomonas aeruginosa H636 at 10 uM incubated for 1 hr by ELISA
[8] = molecular target: T1, Outer membrane porin F (Pseudomonas aeruginosa (strain ATCC 15692 / DSM 22644 / CIP 104116 / JCM14847 / LMG 12228 / 1C / PRS 101 / PAO1)); assay: Binding affinity to recombinant Pseudomonas aeruginosa OprF expressed in Escherichia coli BL21 (DE3) at 10 uM incubated for 1 hr by ELISA
[9] = test system: Pseudomonas aeruginosa; assay: Antibacterial activity against multidrug resistant Pseudomonas aeruginosa H103 infected in BALB/c mouse infected assessed as survival rate at 25 mg/kg, ip measured on day 7; format: functional; details: 168 h
[10] = molecular target: T1, Outer membrane porin F (Pseudomonas aeruginosa (strain ATCC 15692 / DSM 22644 / CIP 104116 / JCM14847 / LMG 12228 / 1C / PRS 101 / PAO1)); assay: Binding affinity to OprF in Pseudomonas aeruginosa H103 assessed as binding affinity to bacterial cell surface at 1 uM incubated for 5 mins by confocal laser scanning microscopy
[11] = test system: Salmonella typhimurium; assay: Binding affinity to cell surface of Salmonella typhimurium KCTC 2370 at 1 uM incubated for 5 mins by confocal laser scanning microscopy; format: organism-based; details: Salmonella enterica subsp. enterica serovar Typhimurium
[12] = test system: Pseudomonas aeruginosa; assay: Antibacterial activity against multidrug resistant Pseudomonas aeruginosa H103 infected in BALB/c mouse infected assessed as survival rate at 15 mg/kg, ip measured on day 7; format: functional; details: 168 h
[13] = test system: Salmonella typhimurium; assay: Antibacterial activity against Salmonella typhimurium KCTC 2370 assessed as reduction in bacterial cell growth preincubated for 3 hrs followed by medium replenishment further incubated for 18 hrs by serial microdilution method; format: functional, Salmonella enterica subsp. enterica serovar Typhimurium; details: Salmonella enterica
[14] = test system: Escherichia coli; assay: Antibacterial activity against Escherichia coli KCTC 2223 assessed as reduction in bacterial cell growth preincubated for 3 hrs followed by medium replenishment further incubated for 18 hrs by serial microdilution method; format: functional
[15] = test system: Candida albicans; assay: Antifungal activity against Candida albicans ATCC 10231 assessed as reduction in fungal cell growth preincubated for 3 hrs followed by medium replenishment further incubated for 18 hrs by serial microdilution method; format: functional
[16] = test system: Escherichia coli; assay: Binding affinity to cell surface of Escherichia coli KCTC 2223 at 1 uM incubated for 5 mins by confocal laser scanning microscopy; format: organism-based
[17] = test system: Pseudomonas aeruginosa; assay: Antibacterial activity against Pseudomonas aeruginosa assessed as reduction in bacterial cell growth preincubated for 3 hrs followed by medium replenishment further incubated for 18 hrs by serial microdilution method; format: functional
[18] = test system: Staphylococcus aureus; assay: Antibacterial activity against Staphylococcus aureus ATCC 15752 assessed as reduction in bacterial cell growth preincubated for 3 hrs followed by medium replenishment further incubated for 18 hrs by serial microdilution method; format: functional
[19] = test system: Outer membrane porin F (Pseudomonas aeruginosa (strain ATCC 15692 / DSM 22644 / CIP 104116 / JCM14847 / LMG 12228 / 1C / PRS 101 / PAO1)), P13794 [UNDEFINED MUTATION]; assay: Binding affinity to OprF mutant in Pseudomonas aeruginosa H636 at 1 uM incubated for 5 mins by confocal laser scanning microscopy
[20] = test system: Pseudomonas aeruginosa; assay: Antibacterial activity against Pseudomonas aeruginosa assessed as reduction in bacterial cell growth in presence of GNU7 preincubated for 3 hrs followed by medium replenishment further incubated for 18 hrs by serial microdilution method; format: functional
[21] = test system: Candida albicans; assay: Antifungal activity against Candida albicans ATCC 10231 assessed as reduction in fungal cell growth in presence of GNU7 preincubated for 3 hrs followed by medium replenishment further incubated for 18 hrs by serial microdilution method; format: functional
[22] = test system: Escherichia coli; assay: Antibacterial activity against Escherichia coli KCTC 2223 assessed as reduction in bacterial cell growth in presence of GNU7 preincubated for 3 hrs followed by medium replenishment further incubated for 18 hrs by serial microdilution method; format: functional
[23] = test system: Salmonella typhimurium; assay: Antibacterial activity against Salmonella typhimurium KCTC 2370 assessed as reduction in bacterial cell growth in presence of GNU7 preincubated for 3 hrs followed by medium replenishment further incubated for 18 hrs by serial microdilution method; format: functional, Salmonella enterica subsp. enterica serovar Typhimurium; details: Salmonella enterica
[24] = molecular target: T1, Outer membrane porin F (Pseudomonas aeruginosa (strain ATCC 15692 / DSM 22644 / CIP 104116 / JCM14847 / LMG 12228 / 1C / PRS 101 / PAO1)); assay: Binding affinity to OprF in Pseudomonas aeruginosa H103 assessed as binding affinity to bacterial cell surface at 10 uM incubated for 1 hr by ELISA
[25] = test system: Staphylococcus aureus; assay: Antibacterial activity against Staphylococcus aureus ATCC 15752 assessed as reduction in bacterial cell growth in presence of GNU7 preincubated for 3 hrs followed by medium replenishment further incubated for 18 hrs by serial microdilution method; format: functional
[26] = test system: Mus musculus; assay: In vivo antibacterial activity against multidrug resistant Pseudomonas aeruginosa H103 infected in BALB/c mouse assessed as reduction in bacterial load by measuring decrease in colony forming units in kidney at 25 mg/kg, ip measured after 12 hrs; format: functional
[27] = test system: Mus musculus; assay: In vivo antibacterial activity against multidrug resistant Pseudomonas aeruginosa H103 infected in BALB/c mouse assessed as reduction in bacterial load by measuring decrease in colony forming units in spleen at 25 mg/kg, ip measured after 12 hrs; format: functional
[28] = test system: Salmonella typhimurium; assay: Antibacterial activity against Salmonella typhimurium KCTC 2370 co-cultured with Pseudomonas aeruginosa H103 assessed as reduction in bacterial load by measuring decrease in colony forming units at 2 uM incubated for 30 mins by time-kill assay; format: functional, organism-based; details: Salmonella enterica subsp. enterica serovar Typhimurium
[29] = test system: Erythrocyte; assay: Hemolytic activity in human RBC incubated for 30 mins; format: ADME, cell-based; details: 0.5 h
[30] = test system: Mus musculus; assay: In vivo antibacterial activity against multidrug resistant Pseudomonas aeruginosa H103 infected in BALB/c mouse assessed as reduction in bacterial load by measuring decrease in colony forming units in liver at 25 mg/kg, ip measured after 12 hrs; format: functional
[31] = test system: Pseudomonas aeruginosa; assay: Antibacterial activity against Pseudomonas aeruginosa H103 co-cultured with Salmonella typhimurium KCTC 2370 assessed as reduction in bacterial load by measuring decrease in colony forming units at 2 uM incubated for 30 mins by time-kill assay; format: functional
[32] = test system: Escherichia coli; assay: Antibacterial activity against Escherichia coli KCTC 2223 co-cultured with Pseudomonas aeruginosa H103 assessed as reduction in bacterial load by measuring decrease in colony forming units at 2 uM incubated for 30 mins by time-kill assay; format: functional
[33] = test system: Pseudomonas aeruginosa; assay: Antibacterial activity against Pseudomonas aeruginosa H103 co-cultured with Escherichia coli KCTC 2223 assessed as reduction in bacterial load by measuring decrease in colony forming units at 2 uM incubated for 30 mins by time-kill assay; format: functional

Row | Compound | Activity [1] | Activity [2] | Activity [3] | Activity [4] | Activity [5] | Activity [6] | Activity [7] | Activity [8] | survival at 25 mg/kg [9] [%] | Activity [10] | Activity [11] | MIC [13] [µM] | MIC [14] [µM] | MIC [15] [µM] | Activity [16] | MIC [17] [µM] | MIC [18] [µM] | Activity [19] | further results
1 | CC(C)C[C@H](NC(=O)[C@H](CO)NC(=O)[C@H](CO)NC(=O)[C@H](CS)NC(=O)[C@@H](N)CO)C(=O)N[C@H](C(=O)N[C@H](C(=O)N[C@@H](CC(C)C)C(=O)N[C@@H](CCCNC(=N)N)C(=O)N1CCC[C@H]1C(=O)N[C@@H](CS)C(=O)NCC(=O)O)[C@@H](C)O)[C@@H](C)O (H-SCSSLTTLRPCG-OH) | Active | Active | Active | Active | Active | Active | Active | inactive | – | – | – | – | – | – | – | – | – | – | –
2 | C[C@@H](O)[C@H]1C(=O)N2C(C(=O)O)=C(S[C@@H]3CN[C@H](C(=O)N(C)C)C3)[C@H](C)[C@H]12 [MEROPENEM] | – | – | – | – | – | – | – | – | 25 | – | – | – | – | – | – | – | – | – | –
3 | H-RLLRPLLQLLKQKLR-OH | – | – | – | – | – | – | – | – | – | inactive | inactive | 16 | 8 | 16 | inactive | 32 | 4 | inactive | survival at 15 mg/kg [12]: 62.5%
4 | H-SQRKLAAKLTSK-OH | inactive | Active | inactive | – | inactive | inactive | inactive | Active | – | Active | inactive | > 32 | > 32 | > 32 | inactive | > 32 | > 32 | inactive | MIC [20]: 32 µM; MIC [21]: 16 µM; MIC [22]: 8 µM; MIC [23]: 16 µM; Activity [24]: Active; MIC [25]: 4 µM
5 | H-SQRKLAAKLTSKGGGRLLRPLLQLLKQKLR-OH | – | – | – | – | – | – | – | – | 100 | Active | inactive | 2 | 1 | 8 | inactive | 2 | 2 | inactive | Activity [26]: 3.6 log10CFU; Activity [27]: 2.8 log10CFU; Activity [28]: inactive; Activity [29]: Non-Toxic; Activity [30]: 3 log10CFU; Activity [31]: 1.4 log10CFU; Activity [32]: 0.6 log10CFU; Activity [33]: 2.7 log10CFU
6 | H-VILTGPEAEYFW-OH | – | – | – | inactive | – | – | – | – | – | – | – | – | – | – | – | – | – | – | –
